Assay results published in patent US4813876A, “Method of treating living pulp tissue” (Dentsply Research & Development Corp., priority 1987, dated 1989).

Test system: L929 mouse fibroblast cells
Experiment: Tissue culture MEM elution test (cytotoxicity)
Format: cell-based
Details: 25 mg
Protocol: One accepted method for determining the necessary biocompatibility of various compositions toward living tissue is an in vitro cell culture biocompatibility method wherein samples of the compositions to be tested are extracted in a bovine serum solution in a Minimum Essential Medium (MEM), whereafter the bovine serum solution and specified animal cells, such as human (WI-38), L929 mouse fibroblast cells or their equivalent, are incubated in a MEM for a predetermined period of time, and the incubated cells are visually observed and graded for cytotoxic manifestations. See, for example, R. E. Wilsnack, Quantitative Cell Culture Biocompatibility Testing of Medical Devices and Correlation To Animal Tests, Biomat, Med. Dev. Art. Org., 4(3& 4), 235-261 (1976). In connection with the present compositions, the in vitro cell culture method preferably is performed using L929 mouse fibroblast cells which have been cultured in a growth medium consisting of 5% bovine serum solution in MEM, wherein the bovine serum solution initially was used to extract a specified mass of cured or uncured material, as the case may be, and wherein the cells were incubated at 37°±2° C. for a specified period of time, e.g., 24, 48 or 72 hours. The degree of toxicity may be stated as a function of the percentage of the cells which have been lysed or fixed over the test period. […]

SMILES: [Ca+2].[OH-].[OH-] [Calcium Hydroxide, calcium hydroxide]
- Cytotoxic manifestation (footnote ***) (2 hours after extract placed on cells): All cells dead after 2 hours
- 24 hr results (% Lysed or fixed) (Table I, curing time 0 s, 24 hr): 100%
